Experimental data as given in patent US7312248B2, “Control of parasites in animals by the use of novel trifluoromethanesulfonanilide oxime ether derivatives” (Schering-Plough Animal Health Corporation, priority 2004, dated 2007).
Read-outs that look alike come from different tables or passages of the source.

What was measured:
Assay type in all cases: in vivo
[1] = tested on: Brown Dog Tick (Rhipicephalus sanguineus); test: Dose response protocol for topical application on brown dog ticks (LD50); conditions: 24 h mortality
Description: e) Dose response protocol for topical application on brown dog ticks (Rhipicephalus sanguineus): The test determines the level of insecticidal activity of sample compounds or formulations when applied topically on brown dog ticks. Sample compounds were stored prior to use in a freezer (−5±1° C.), unless otherwise specified.
• Mortality: A tick is defined as dead after it gives no apparent response when touched lightly or gently breathed upon, while observed for 30 seconds. • LD50 (Lethal Dose 50): The dose of a topically applied treatment at which 50% of the dog ticks are killed. • Reference compound: To assess an experimental compound for significant acaricidal activity a single dose level is chosen, which is based upon known results from previous experiments using a commercially available active i.e., a reference compound. The reference compound selected is one in common use, and one that has a similar mode of action against the Brown Dog Tick (i.e., the test species). • Recovery container: A recovery container consists of a 500 ml round plastic container measuring 115 mm diameter and 70 mm height, with a tight fitting lid that has 10 small (˜1 mm) holes inserted for air exchange. A 90 mm diameter piece of filter paper was placed on the bottom of the container and moistened with 1 mL of de-stilled water.
Adult, mixed sex, Brown Dog Ticks (Rhipicephalus sanguineus) were reared as follows: (i) cultured, (ii) transferred unfed, to a testing laboratory, and (iii) then maintained under controlled conditions (i.e., temp. 18°±2° C., humidity 75±5% RH). The ticks used were selected for vigor prior to testing, i.e., capable of actively walking and responsive to being touched or gently breathed upon.
During the testing, the temperature was maintained at 25±1° C., and the humidity was ambient. Seven dose levels (concentrations) of sample compound, in the form of serial dilutions in acetone, were derived from a pilot study and covered a range that produced very low to very high mortality. Groups of ten ticks were treated topically (on the abdomen) with 1 μL of a single dose level of the sample compound. Each test was replicated four times, i.e., employing a total of 40 ticks per dose level of each sample compound. As a control, ten ticks were treated with solvent only (acetone) for each test. Following the treatment, the ticks were held in recovery containers maintained under appropriate rearing conditions for 24 hours. Mortality resulting from the treatments was recorded at 24 hours. […] Press, London (1971).]

[2] = tested on: cat flea (Ctenocephalides felis); test: Ctenocephalides felis adulticide assay: dose response (LC50)
Procedure, shortened: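 Groups of 15 adult cat fleas, 3–7 days post-emergence, were exposed for 24 h at 25° C and 75% humidity to glass flask bases coated with six serial doses in acetone and dried for 24 h. Mortality was scored at 8 and 24 h, and LC50 was the surface-treatment concentration killing 50%.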

[3] = tested on: cat flea (Ctenocephalides felis); test: whole plant or invertebrate; conditions: Ctenocephalides felis
Procedure, shortened: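 Single-dose screen at 1.26 μg/cm^2: acetone solution dried for 24 h on a Coatasil-treated 159 mm^2 flask base, then 15 adult cat fleas aged 3-7 days per flask, four or more replicates, acetone control. Percent dead, meaning not moving or unable to right themselves, recorded after 8, 24 and/or 48 h at 25 °C and 75% RH.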

[4] = tested on: Brown Dog Tick (Rhipicephalus sanguineus); test: Rapid screening protocol for topical application on brown dog ticks; conditions: 48 h; Laboratory 2 F data
Haemonchus contortus = Haemonchus contortus larvacidal (larval development) assay; conditions: 144 h, read-out: Haemonchus contortus LD99
Procedure, shortened: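 Nematode eggs placed on agar containing compound (12 two-fold dilutions, final 0.024–50 μg/ml) and left 6 days to develop to L3. LD99 is the lowest concentration inhibiting development of 99% of larvae, derived from well titre (2^n−1) and top concentration.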

[5] = 8 h, read-out: C. felis Mortality (%) 8 h, 8 h, Laboratory 2 B data
[6] = 24 h, read-out: C. felis Mortality (%) 24 h, 24 h, Laboratory 2 B data
[7] = 24 h, read-out: C. felis Mortality (%) 24 h, 24 h, Laboratory 1 A data

Row | Structure (SMILES) | R. sanguineus LD50 [1] | C. felis LC50 ([2]; Laboratory 2 D data) | mortality at 1.26 µg/cm2, 1.26 µg/cm2 [3, 5] | mortality at 1.26 µg/cm2, 1.26 µg/cm2 [3, 6] | R. sanguineus Mortality (%) 48 h [4] | C. felis LC50 ([2]; Laboratory 1 C data) | mortality at 1.26 µg/cm2, 1.26 µg/cm2 [3, 7] | IC99 (Haemonchus contortus)
1 | CCC/C(=N\OCC)c1cc(Cl)ccc1NS(=O)(=O)C(F)(F)F [Compound 193, N-[4-chloro-2-(1-ethoxyiminobutyl)phenyl]trifluoromethanesulfonamide] | 1.2 μg/tick | 0.01^D μg/cm^2 | 88% | 100% | 95% |  |  | 
2 | C/C(=N\OCc1ccc(Cl)s1)c1cc(Cl)ccc1NS(=O)(=O)C(F)(F)F [Compound 194, N-{4-chloro-2-[1-(5-chlorothiophen-2-ylmethoxyimino)ethyl]phenyl}trifluoromethanesulfonamide] | 2.0 μg/tick | 0.02^D μg/cm^2 | 100% | 100% | 100% |  |  | 
3 | CC/C(=N\OCC1CCCO1)c1cc(Cl)ccc1NS(=O)(=O)C(F)(F)F (stereo not shown) [Compound 205] | 3.1 μg/tick | 0.02^D μg/cm^2 | 97% | 98% | 100% |  |  | 
4 | CC(C)ON=C(c1cc(Cl)ccc1NS(=O)(=O)C(F)(F)F)C1CCCCC1 (racemic) [Compound 210, N-[4-chloro-2-(cyclohexylisopropoxyiminomethyl)phenyl]trifluoromethanesulfonamide] | 2.7 μg/tick | 0.1^D μg/cm^2 | 66% | 100% | 100% |  |  | 
5 | CC/C(=N\OCC1CC1)c1cc(Cl)ccc1NS(=O)(=O)C(F)(F)F [Compound 196, N-[4-chloro-2-(1-cyclopropylmethoxyiminopropyl)phenyl]trifluoromethanesulfonamide] | 1.2 μg/tick | 0.008^D μg/cm^2 | 96% | 100% | 100% |  |  | 
6 | C=CCO/N=C(\CC)c1cc(Cl)ccc1NS(=O)(=O)C(F)(F)F [Compound 156, N-[2-(1-allyloxyiminopropyl)-4-chlorophenyl]trifluoromethanesulfonamide] | 0.6 μg/tick | 0.02 μg/cm^2 |  |  | 95% | 0.4 μg/cm^2 | 100% | 
7 | CC/C(=N\Oc1ccc(F)cc1)c1cc(Cl)ccc1NS(=O)(=O)C(F)(F)F [Compound 130, N-{4-chloro-2-[1-(4-fluorophenoxyimino)propyl]phenyl}trifluoromethanesulfonamide] | 1.5 μg/tick | 0.03 μg/cm^2 |  |  | 100% | 0.2 μg/cm^2 | 100% | 1.5 µg/mL
8 | C/C(=N\OCC1CCCC1)c1cc(Cl)ccc1NS(=O)(=O)C(F)(F)F [Compound 189] | 2.2 μg/tick | 0.01^D μg/cm^2 | 91% | 97% | 100% |  |  | 
9 | CC/C(=N\OC(C)(C)C)c1cc(Cl)ccc1NS(=O)(=O)C(F)(F)F [Compound 224] | 1.5 μg/tick | 0.04^D μg/cm^2 | 83% | 100% | 95% |  |  | 
